Reference: patent publication US9028845B2, “Chimeric immunomodulatory compounds and methods of using the same-IV” (Dynavax Technologies Corporation, priority 2001, dated 2015)

Key:
human PBMCs = test: Human PBMC cytokine response assay (IFN-γ and IFN-α in cell-free medium by ELISA), with or without cPLGA;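 for IFN-α (pg/ml) mean: 20 µg/mL compound for 24 hours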;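 for IFN-γ (pg/ml) mean: 20 µg/mL compound for 24 hours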; type: cell-based; conditions: for IFN-γ (pg/ml) 28065: donor 28065 (high background), 1000 = outside assay limits; for IFN-γ (pg/ml) 28065 / IFN-α (pg/ml) 28065 / IFN-α (pg/ml) 28066 / IFN-γ (pg/ml) 28066 / IFN-α (pg/ml) 28067 / IFN-γ (pg/ml) 28067 / IFN-α (pg/ml) 28068 / IFN-γ (pg/ml) 28068 / IFN-α (pg/ml) mean / IFN-γ (pg/ml) mean / IFN-α induction (FIG. 10), in words: 24 h; for IFN-γ (pg/ml) 28065 / IFN-α (pg/ml) 28065 / IFN-α (pg/ml) 28066 / IFN-γ (pg/ml) 28066 / IFN-α (pg/ml) 28067 / IFN-γ (pg/ml) 28067 / IFN-α (pg/ml) 28068 / IFN-γ (pg/ml) 28068 / IFN-α (pg/ml) mean / IFN-γ (pg/ml) mean: + PLGA = premixed with 100 μg/ml cPLGA; for IFN-α (pg/ml) 28065: donor 28065; for IFN-α (pg/ml) 28066 / IFN-γ (pg/ml) 28066: donor 28066; for IFN-α (pg/ml) 28067 / IFN-γ (pg/ml) 28067: donor 28067; for IFN-α (pg/ml) 28068 / IFN-γ (pg/ml) 28068: donor 28068; for IFN-α (pg/ml) mean / IFN-γ (pg/ml) mean: mean of donors 28065-28068; for IFN-α induction (FIG. 10), in words: PBMCs from 8 donors, 20 μg/ml
CD19+ B cells = test: Human B cell proliferation assay (3H-thymidine incorporation); conditions: for cpm2 / cpm3 / mean cpm / cpm1 / mean of both: B cells, 2 μg/ml, Experiment B; for mean of both: mean of donors 121 and 194; for B cell proliferation (FIG. 11), in words: purified human B cells, 5 μg/ml, 96 h
[1] = Table 24, mean of donors 28234-28237
[2] = Table 25, mean of donors 28250-28253

Substance: 5′-TCGTCG-3′-TEG-5′-ACGTTCG-3′-TEG-5′-AGATGAT-3′ [Compound C-18]
- IFN-γ (pg/ml) 28065 (human PBMCs; 20 ug/ml): 1000 pg/mL
- IFN-α (pg/ml) 28065 (human PBMCs; 20 ug/ml): 51 pg/mL
- IFN-α (pg/ml) 28066 (human PBMCs; 20 ug/ml): 9 pg/mL
- IFN-γ (pg/ml) 28066 (human PBMCs; 20 ug/ml): 102 pg/mL
- IFN-α (pg/ml) 28067 (human PBMCs; 20 ug/ml): 16 pg/mL
- IFN-γ (pg/ml) 28067 (human PBMCs; 20 ug/ml): 27 pg/mL
- IFN-α (pg/ml) 28068 (human PBMCs; 20 ug/ml): 162 pg/mL
- IFN-γ (pg/ml) 28068 (human PBMCs; 20 ug/ml): 695 pg/mL
- IFN-α (pg/ml) mean (human PBMCs; 20 ug/ml): 59 pg/mL
- IFN-γ (pg/ml) mean (human PBMCs; 20 ug/ml): 456 pg/mL
- cpm2 (CD19+ B cells; donor 121): 17085 cpm
- cpm3 (CD19+ B cells; donor 121): 14653 cpm
- mean cpm (CD19+ B cells; donor 121 mean): 15869 cpm
- cpm1 (CD19+ B cells; donor 194): 10028 cpm
- cpm2 (CD19+ B cells; donor 194): 12217 cpm
- cpm3 (CD19+ B cells; donor 194): 10538 cpm
- mean cpm (CD19+ B cells; donor 194 mean): 10928 cpm
- mean of both (CD19+ B cells): 13398 cpm

Substance: 5′-TCGTCG-3′-abasic-5′-ACGTTCG-3′-abasic-5′-AGATGAT-3′ [Compound C-20]
- IFN-γ (pg/ml) 28065 (human PBMCs; 20 ug/ml): 354 pg/mL
- IFN-α (pg/ml) 28065 (human PBMCs; 20 ug/ml): 21 pg/mL
- IFN-α (pg/ml) 28066 (human PBMCs; 20 ug/ml): 5 pg/mL
- IFN-γ (pg/ml) 28066 (human PBMCs; 20 ug/ml): 13 pg/mL
- IFN-α (pg/ml) 28067 (human PBMCs; 20 ug/ml): 13 pg/mL
- IFN-γ (pg/ml) 28067 (human PBMCs; 20 ug/ml): 16 pg/mL
- IFN-α (pg/ml) 28068 (human PBMCs; 20 ug/ml): 64 pg/mL
- IFN-γ (pg/ml) 28068 (human PBMCs; 20 ug/ml): 505 pg/mL
- IFN-α (pg/ml) mean (human PBMCs; 20 ug/ml): 26 pg/mL
- IFN-γ (pg/ml) mean (human PBMCs; 20 ug/ml): 222 pg/mL
- cpm1 (CD19+ B cells; donor 121): 31276 cpm
- cpm2 (CD19+ B cells; donor 121): 30851 cpm
- cpm3 (CD19+ B cells; donor 121): 28532 cpm
- mean cpm (CD19+ B cells; donor 121 mean): 30220 cpm
- cpm1 (CD19+ B cells; donor 194): 18082 cpm
- cpm2 (CD19+ B cells; donor 194): 18705 cpm
- cpm3 (CD19+ B cells; donor 194): 17481 cpm
- mean cpm (CD19+ B cells; donor 194 mean): 18089 cpm
- mean of both (CD19+ B cells): 24155 cpm

Substance: (5′-TCGACGT-3′-HEG)2-glycerol-HEG-5′-TCGACGT-3′ [Compound C-101]
- IFN-α (human PBMCs; Example 58, 0.8 ug/ml, donor 1): 52 pg/mL
- IFN-α (human PBMCs; Example 58, 0.8 ug/ml, donor 2): 52 pg/mL
- IFN-α (human PBMCs; Example 58, 0.8 ug/ml, donor 3): 52 pg/mL
- IFN-α (human PBMCs; Example 58, 0.8 ug/ml, donor 4): 52 pg/mL
- IFN-α mean (human PBMCs; Example 58, 0.8 ug/ml, mean of four individuals): 52 pg/mL
- IFN-α (human PBMCs; Example 58, 4 ug/ml, donor 1): 52 pg/mL
- IFN-α (human PBMCs; Example 58, 4 ug/ml, donor 2): 52 pg/mL
- IFN-α (human PBMCs; Example 58, 4 ug/ml, donor 3): 59 pg/mL
- IFN-α (human PBMCs; Example 58, 4 ug/ml, donor 4): 204 pg/mL
- IFN-α mean (human PBMCs; Example 58, 4 ug/ml, mean of four individuals): 92 pg/mL
- IFN-α (human PBMCs; Example 58, 20 ug/ml, donor 1): 2330 pg/mL
- IFN-α (human PBMCs; Example 58, 20 ug/ml, donor 2): 109 pg/mL
- IFN-α (human PBMCs; Example 58, 20 ug/ml, donor 3): 215 pg/mL
- IFN-α (human PBMCs; Example 58, 20 ug/ml, donor 4): 157 pg/mL
- IFN-α mean (human PBMCs; Example 58, 20 ug/ml, mean of four individuals): 703 pg/mL
- IFN-α (human PBMCs; Example 59, 0.8 ug/ml, donor 48): 102 pg/mL
- IFN-α (human PBMCs; Example 59, 0.8 ug/ml, donor 177): 102 pg/mL
- IFN-α (human PBMCs; Example 59, 0.8 ug/ml, donor 272): 185 pg/mL
- IFN-α (human PBMCs; Example 59, 0.8 ug/ml, donor 273): 102 pg/mL
- IFN-α mean (human PBMCs; Example 59, 0.8 ug/ml, mean of four donors): 123 pg/mL
- IFN-α (human PBMCs; Example 59, 4 ug/ml, donor 48): 818 pg/mL
- IFN-α (human PBMCs; Example 59, 4 ug/ml, donor 177): 3631 pg/mL
- IFN-α (human PBMCs; Example 59, 4 ug/ml, donor 272): 604 pg/mL
- IFN-α (human PBMCs; Example 59, 4 ug/ml, donor 273): 102 pg/mL
- IFN-α mean (human PBMCs; Example 59, 4 ug/ml, mean of four donors): 1289 pg/mL
- IFN-α (human PBMCs; Example 59, 20 ug/ml, donor 48): 2212 pg/mL
- IFN-α (human PBMCs; Example 59, 20 ug/ml, donor 177): 4277 pg/mL
- IFN-α (human PBMCs; Example 59, 20 ug/ml, donor 272): 642 pg/mL
- IFN-α (human PBMCs; Example 59, 20 ug/ml, donor 273): 102 pg/mL
- IFN-α mean (human PBMCs; Example 59, 20 ug/ml, mean of four donors): 1808 pg/mL
- IFN-α induction (FIG. 10), in words (human PBMCs): induce high levels of IFN-α
- IFN-α (human PBMCs; Table 24, donor 28234): 16 pg/mL
- IFN-γ (human PBMCs; Table 24, donor 28234): 14 pg/mL
- IFN-α (human PBMCs; Table 24, donor 28235): 249 pg/mL
- IFN-γ (human PBMCs; Table 24, donor 28235): 205 pg/mL
- IFN-α (human PBMCs; Table 24, donor 28236): 1354 pg/mL
- IFN-γ (human PBMCs; Table 24, donor 28236): 627 pg/mL
- IFN-α (human PBMCs; Table 24, donor 28237): 8566 pg/mL
- IFN-γ (human PBMCs; Table 24, donor 28237): 2612 pg/mL
- IFN-α mean (human PBMCs; [1]): 2546 pg/mL
- IFN-γ mean (human PBMCs; [1]): 865 pg/mL
- IFN-a (human PBMCs; Table 25, donor 28250): 540 pg/mL
- IFN-g (human PBMCs; Table 25, donor 28250, polynucleotides/spacers at amounts equivalent to the CIC, spacers alone 9 uM): 224 pg/mL
- IFN-a (human PBMCs; Table 25, donor 28251): 1472 pg/mL
- IFN-g (human PBMCs; Table 25, donor 28251): 63 pg/mL
- IFN-a (human PBMCs; Table 25, donor 28252): 509 pg/mL
- IFN-g (human PBMCs; Table 25, donor 28252): 180 pg/mL
- IFN-a (human PBMCs; Table 25, donor 28253): 2645 pg/mL
- IFN-g (human PBMCs; Table 25, donor 28253): 146 pg/mL
- IFN-a mean (human PBMCs; [2]): 1291 pg/mL
- IFN-g mean (human PBMCs; [2]): 153 pg/mL
- B cell proliferation (FIG. 11), in words (CD19+ B cells): induce very little B cell proliferation

Substance: (5′-TCGACGT-3′-HEG)3-trebler-HEG-5′-TCGACGT-3′ [Compound C-125]
- IFN-α induction (FIG. 10), in words (human PBMCs): induce high levels of IFN-α
- B cell proliferation (FIG. 11), in words (CD19+ B cells): induce very little B cell proliferation

Substance: (5′-TCGATCG-3′-HEG)2-glycerol-HEG-5′-TCGATCG-3′ [Compound C-145]
- IFN-α induction (FIG. 10), in words (human PBMCs): induce high levels of IFN-α
- B cell proliferation (FIG. 11), in words (CD19+ B cells): induce very little B cell proliferation

Substance: (5′-TCGTCGA-3′-C3)2-glycerol-C3-5′-TCGTCGA-3′ [Compound C-104]
- IFN-α induction (FIG. 10), in words (human PBMCs): induces no measurable IFN-α
- IFN-α (human PBMCs; Table 24, donor 28234): 16 pg/mL
- IFN-γ (human PBMCs; Table 24, donor 28234): 14 pg/mL
- IFN-α (human PBMCs; Table 24, donor 28235): 29 pg/mL
- IFN-γ (human PBMCs; Table 24, donor 28235): 4 pg/mL
- IFN-α (human PBMCs; Table 24, donor 28236): 16 pg/mL
- IFN-γ (human PBMCs; Table 24, donor 28236): 87 pg/mL
- IFN-α (human PBMCs; Table 24, donor 28237): 16 pg/mL
- IFN-γ (human PBMCs; Table 24, donor 28237): 125 pg/mL
- IFN-α mean (human PBMCs; [1]): 19 pg/mL
- IFN-γ mean (human PBMCs; [1]): 58 pg/mL
- IFN-α induction, in words (human PBMCs; used alone): HEG (C-94)>TEG (C-103)>C3 (C-104)=no linker (C-28)
- B cell proliferation (FIG. 11), in words (CD19+ B cells): stimulates B cells to proliferate
